In patent EP0423240B1, “MODULATION OF VIRUS-HOST CELL INTERACTIONS USING CYCLIC OLIGOSACCHARIDES” (THE TRUSTEES OF THE UNIVERSITY OF PENNSYLVANIA, priority 1988, dated 1990):
Values after ≈ are worked out from the molar mass of the structure shown.

Columns and labels:
[1] = tested on: HIV-2; test: HIV-2 induced syncytia assay, ROD-2 infected cells cocultured with H9 target cells; assay type: cell-based; conditions: HIV-2, number and size of syncytia
Method: For the assay of HIV-1 fusion, Supt T1 cells were used as target cells. They fuse rapidly when cocultured with HIV-1 (H9/IIIb) producing cell lines. For the assay of HIV-2 mediated cell fusion, H9 cells were used as target cells. They fuse rapidly when cocultured with HIV-2 (CEMROD-2) producing cell lines. HIV infected cells were plated in 96 well plates (10⁴ cells/well in RPMI 1640 + 10% FCS) and incubated with or without dilution of compounds for 30 minutes at 37°C. Target cells are then added 5 x 10⁵/well and the number of syncytia are qualitatively determined after the incubation periods described in the text. […]

[2] = tested on: HIV-1; test: Viral RNA analysis by dot blot; assay type: cell-based; conditions: target cells infected in the presence of compound, 1 mM, 72 hours post-infection
Method: Virus particles were incubated with target cells in the presence or absence of […] of β-CD-14S. At 72 hours post infection, the cells were washed and dot blot assays were performed to determine the presence or absence of viral RNA production. In (A), target cells were infected in the presence of sulfated β-cyclodextrin (lane A), in the absence of cyclodextrins (lane B), or in the presence of unsubstituted β-cyclodextrin (lane C). 1/2 dilutions of cells are from left to right starting with 10⁶ cell/well utilized. In (B), virally infected cells (+) or uninfected cells (-) were assayed for their ability to produce viral RNA by dot blot analysis. CD = infected cells incubated with 1 mM of β-CD-14S. 1/2 dilutions of cells are from top to bottom starting with 10⁶ cell/well.
Virus treated cells were grown in tissue culture and harvested for assay at 72 hrs. post-infection. The cell concentrations were then adjusted to 1 x 10⁶ cells/m1 with phosphate buffered saline and spotted directly onto prewetted gene screen utilizing a dot blot apparatus. The filter was then fixed in 3% NaC1, 10 mM NaH₂PO₄, (pH 7.2) containing 1% gluteraldehyde at 4°C for 1 hr. The fixed blot was then rinsed three times with proteolytic buffer (50mM EDTA, 0.1 M Tris-HC1 (pH 8.0), 20 µg/ml proteinase K) for 30 minutes at 37°C. The filter was air dried until being probed. A Sall-Xho1 probe derived from the pIIIenv1 plasmid (a generous gift of Dr. J. Sodrofsky) and encoding the envelope region of the HXB2, HIV-1 virus was labeled by the random primer method using standard technology and hybridized to the filter as previously described (Weiner et al., 1986, Cell Immunol. 100:197).
To determine if the cyclodextrins were interfering with steps relevant to viral replication, the ability of these compounds to inhibit viral nucleic acid synthesis was determined. Virus particles were incubated with target cells in the presence or absence of 1 mM of β-CD-14S. At 72 hours post-infection, the cells were washed and dot blot assays were performed to determine the presence or absence of viral RNA production. […]

[3] = Water solubility at 0°C; assay type: physicochemical; conditions: 0°C, H₂O
Method: The cyclic oligosaccharide derivatives useful in the present invention are highly hydrophilic and therefore very water soluble. A highly hydrophilic character probably is important to allow interaction with cellular surfaces. The hydrophilic activity is likely roughly indicated by the affinity to water, as measured by water solubility. It is important to measure the same at 0°C since at higher temperatures the most suitable derivative have solubilities so high that meaningful measurements are difficult.

[4] = tested on: HTLV-IIIb cell free virus; test: Reverse transcriptase assay of HIV infectivity, cell free virus on target cells, 10 day incubation; assay type: cell-based, HIV-1; conditions: 1/2 dilutions from 2.5 mM, result in words
Method: Figure 2 illustrates the effects of cyclodextrin and cyclodextrin derivatives on HIV infectivity as determined by reverse transcriptase activity. Samples assayed are (A) untreated control cells, (B) β-cyclodextrin unsubstituted ring, (C) partially sulfated β-cyclodextrin ring, (D) propylated β-cyclodextrin ring, (E) sulfated β-cyclodextrin ring, and (F) methylated β-cyclodextrin ring. Numbers indicate 1/2 dilutions of test compounds with 1 = 2.5 mM concentration of compound.
Virus infected cells were pelleted by centrifugation and 50 µl of culture suprenatant was collected from each well for assay. Culture supernatant (25 µl) was plated in 96 well round bottomed plates and 50 µl of transcriptase cocktail was added to each well. Cocktail is 50 mM Tris-HC1, pH 8.0, 20 mM DTT, 0.6 mM MnC1₂, 60 mM NaC1, 0.05% NP-40, 5 µg/ml dt (oligodeoxythymidilic acid), 10 µg/ml poly A (polyriboadenylic acid), 10 µM dTTP, 1 Ci/mm ³²P dTTP. Plates were then incubated for 60 minutes at 37°C. After incubation samples were spotted onto Whatman DEAE-81 paper, washed and analyzed by counting or direct autoradiography.
The ability of cyclodextrins to inhibit HIV infection was assessed in vitro utilizing reverse transcriptase assays as described Section 6.1.2, supra. HTLV-IIIb cell free virus stocks were inoculated onto target cells in the presence or absence of the synthetic compounds.

[5] = tested on: HIV-1; test: HIV-1 induced syncytia assay, IIIb infected H9 cells cocultured with Supt-1 target cells; assay type: cell-based; conditions: for number of syncytia formed: HIV-1, number and size of syncytia
Method: For the assay of HIV-1 fusion, Supt T1 cells were used as target cells. They fuse rapidly when cocultured with HIV-1 (H9/IIIb) producing cell lines. For the assay of HIV-2 mediated cell fusion, H9 cells were used as target cells. They fuse rapidly when cocultured with HIV-2 (CEMROD-2) producing cell lines. HIV infected cells were plated in 96 well plates (10⁴ cells/well in RPMI 1640 + 10% FCS) and incubated with or without dilution of compounds for 30 minutes at 37°C. Target cells are then added 5 x 10⁵/well and the number of syncytia are qualitatively determined after the incubation periods described in the text.
In a series of additional experiments, analysis of HIV-1 induced syncytia was performed by coculturing H9 cells infected with the IIIb isolate with uninfected Supt-1 (a human CD4+ T cell line) cells as targets. […]

OC[C@H]1O[C@@H]2O[C@H]3[C@H](O)[C@@H](O)[C@@H](O[C@H]4[C@H](O)[C@@H](O)[C@@H](O[C@H]5[C@H](O)[C@@H](O)[C@@H](O[C@H]6[C@H](O)[C@@H](O)[C@@H](O[C@H]7[C@H](O)[C@@H](O)[C@@H](O[C@H]8[C@H](O)[C@@H](O)[C@@H](O[C@H]1[C@H](O)[C@H]2O)O[C@@H]8CO)O[C@@H]7CO)O[C@@H]6CO)O[C@@H]5CO)O[C@@H]4CO)O[C@@H]3CO [Beta-CD, β-cyclodextrin, reference compound]
number of syncytia formed ([1]; 1.3 mM): 4 L | number of syncytia formed ([1]; 2.5 mM): 4 L | number of syncytia formed ([1]; .01 mM): 4 L | number of syncytia formed ([1]; .02 mM): 4 L | number of syncytia formed ([1]; .04 mM): 4 L | number of syncytia formed ([1]; .08 mM): 4 L | number of syncytia formed ([1]; .16 mM): 4 L | number of syncytia formed ([1]; .32 mM): 4 L | number of syncytia formed ([1]; .63 mM): 4 L | HIV-1 specific RNA [2]: substantial viral RNA was detected | solubility [3]: 7000 µg/mL (≈ 6.17 mM) | inhibition of viral infectivity (reverse transcriptase activity) [4]: no inhibition of viral infectivity | number of syncytia formed ([5]; 1.3 mM): 4 L | number of syncytia formed ([5]; 2.5 mM): 4 L | number of syncytia formed ([5]; .01 mM): 4 L | number of syncytia formed ([5]; .02 mM): 4 L | number of syncytia formed ([5]; .04 mM): 4 L | number of syncytia formed ([5]; .08 mM): 4 L | number of syncytia formed ([5]; .16 mM): 4 L | number of syncytia formed ([5]; .32 mM): 4 L | number of syncytia formed ([5]; .63 mM): 4 L | inhibiting syncytia formation of HIV-1 ([5]; result in words): as ineffective as media alone
